Data published in US20240025862A1, “SUBSTITUTED N-PHENYLURACILS AND SALTS THEREOF, AND USE THEREOF AS HERBICIDAL ACTIVE SUBSTANCES” (Bayer Aktiengesellschaft, priority 2020, published 2024).

Legend:
Type in all cases: in vivo
[1] = system: Echinochloa crus-galli (ECHCG); test: Post-emergence herbicidal action, greenhouse pot test (also comparative test C)
Method: (§1) Seeds of monocotyledonous and dicotyledonous weeds and crop plants were placed in sandy loam in plastic or wood-fiber pots, covered with soil and cultivated in a greenhouse under controlled growth conditions. 2 to 3 weeks after sowing, the test plants were treated at the one-leaf stage. The compounds of the invention, formulated in the form of wettable powders (WP) or as emulsion concentrates (EC), were then sprayed onto the green parts of the plants as aqueous suspension or emulsion with addition of 0.5% additive at a water application rate of 600 l/ha (converted). After the test plants had been kept in the greenhouse under optimum growth conditions for about 3 weeks, the activity of the preparations was rated visually in comparison to untreated controls. For example, 100% activity=the plants have died, 0% activity=like control plants.
(§2) Tables A1 to A14 below show the effects of selected compounds of the general formula (I) according to Tables I.1 to I.33 on various harmful plants and at an application rate corresponding to 20 g/ha and less, which were obtained by the experimental method specified above. The appendices “a”, “b” and “c” give differentiation by different dosage with otherwise the same harmful plants tested.
(§3) C. Comparative Herbicidal Action and Crop Plant Compatibility of Two Inventive Compounds (I.7-1 and I.7-115) with a Compound of Similar Structure Known from the Literature (WO2002/098227, a-17 and EP1106607, 3-14) in Post-Emergence Treatment.
(§4) Tables C1-C4 below show the effects of two inventive compounds (I.7-1 and I.7-115) together with a compound of similar structure known from the literature (a-17 in WO2002/098227, and 3-14 in EP1106607) in different crop plants at an application rate corresponding to 5 g/ha or less, which have been obtained by the aforementioned experimental procedure.

[2] = system: Alopecurus myosuroides (ALOMY); test: as above; details: 20 g/ha, rated visually after about 3 weeks vs untreated controls, 100% = plants have died
Method: as §1, §2, §3, §4

Setaria viridis (SETVI) = test: as above; details: for Post-emergence action against SETVI: 20 g/ha
Method: as §1, §2, §3, §4

[3] = system: Matricaria inodora (MATIN); test: as above
Method: as §1, §2, §3, §4

Viola tricolor (VIOTR) = test: Post-emergence herbicidal action, greenhouse pot test
Method: as §1, §2

Veronica persica (VERPE) = test: as above
Method: as §1, §2

[4] = system: Abutilon theophrasti (ABUTH); test: as above; details: rated visually after about 3 weeks vs untreated controls, 100% = plants have died
Method: as §1, §2

[5] = system: Polygonum convolvulus (POLCO); test: as above
Method: as §1, §2

[6] = system: Pharbitis purpurea (PHBPU); test: as above
Method: as §1, §2

[7] = system: Amaranthus retroflexus (AMARE); test: as above; details: rated visually after about 3 weeks vs untreated controls, 100% = plants have died
Method: as §1, §2

Oryza sativa (ORYSA) = test: Post-emergence crop plant compatibility, greenhouse pot test (also comparative test C); details: vs untreated controls
Method: as §1
(§5) The observed effects on selected crop plants are reported here in comparison to the untreated controls (values in %). The appendices “a”, “b” and “c” give differentiation by different dosage with otherwise the same crop plants tested.
as §3

Zea mays (ZEAMX) = test: Post-emergence crop plant compatibility, greenhouse pot test; details: 1.25 g/ha, vs untreated controls
Method: as §1, §5

[8] = system: Triticum aestivum (TRZAS); test: as above; details: 1.25 g/ha, vs untreated controls
Method: as §1, §5

SMILES | Post-emergence action against ECHCG in % ([1]; dosage 5 g/ha) [%] | Post-emergence action against ECHCG in % ([1]; dosage 20 g/ha) [%] | Post-emergence action at 20 g/ha against ALOMY in % [2] [%] | Post-emergence action against SETVI (Setaria viridis (SETVI)) [%] | Post-emergence action against SETVI in % (Setaria viridis (SETVI); dosage 1.25 g/ha) [%] | Post-emergence action against SETVI in % (Setaria viridis (SETVI); dosage 5 g/ha) [%] | Post-emergence action against MATIN in % ([3]; dosage 20 g/ha) [%] | Post-emergence action against VIOTR (Viola tricolor (VIOTR); 1.25 g/ha) [%] | Post-emergence action against VIOTR (Viola tricolor (VIOTR); 5 g/ha) [%] | Post-emergence action against VIOTR (Viola tricolor (VIOTR); 20 g/ha) [%] | Post-emergence action against VERPE (Veronica persica (VERPE); 1.25 g/ha) [%] | Post-emergence action against VERPE (Veronica persica (VERPE); 5 g/ha) [%] | Post-emergence action against VERPE (Veronica persica (VERPE); 20 g/ha) [%] | Post-emergence action at 1.25 g/ha against ABUTH in % [4] [%] | Post-emergence action at 5 g/ha against ABUTH in % [4] [%] | Post-emergence action at 20 g/ha against ABUTH in % [4] [%] | Post-emergence action against POLCO in % ([5]; dosage 5 g/ha) [%] | Post-emergence action against POLCO in % ([5]; dosage 20 g/ha) [%] | Post-emergence action against PHBPU in % ([6]; dosage 5 g/ha) [%] | Post-emergence action against PHBPU in % ([6]; dosage 20 g/ha) [%] | further results
Cn1c(C(F)(F)F)cc(=O)n(-c2cc(Oc3c(F)cccc3OCC(=O)OCc3ccccn3)c(Cl)cc2F)c1=O [I.19-276] | 100 | 100 | 90 | 100 | 100 | 100 | 100 | 100 | 100 | 100 | 100 | 100 | 100 | 100 | 100 | 100 | 100 | 100 | 100 | 100 | Post-emergence action against MATIN in % ([3]; dosage 5 g/ha): 100%; Post-emergence action at 1.25 g/ha against AMARE in % [7]: 100%; Post-emergence action at 5 g/ha against AMARE in % [7]: 100%; Post-emergence action at 20 g/ha against AMARE in % [7]: 100%; Post-emergence action against ORYSA (crop plant compatibility) (Oryza sativa (ORYSA); 1.25 g/ha): 0%; Post-emergence action against ORYSA (crop plant compatibility) (Oryza sativa (ORYSA); 5 g/ha): 0%; Post-emergence action against ZEAMX (crop plant compatibility) (Zea mays (ZEAMX)): 20%; Post-emergence action against TRZAS (crop plant compatibility) [8]: 20%
COCCOC(=O)COc1ccc(F)cc1Oc1cc(-n2c(=O)cc(C(F)(F)F)n(C)c2=O)c(F)cc1Cl [I.23-1] | 100 | 100 | 90 | 100 | 100 | 100 | 100 | 80 | 100 | 100 | 80 | 100 | 100 | 100 | 100 | 100 | 100 | 100 | 80 | 80 | Post-emergence action against MATIN in % ([3]; dosage 5 g/ha): 80%; Post-emergence action against POLCO in % ([5]; dosage 1.25 g/ha): 90%; Post-emergence action at 5 g/ha against AMARE in % [7]: 100%; Post-emergence action at 20 g/ha against AMARE in % [7]: 100%; Post-emergence action against ORYSA (crop plant compatibility) (Oryza sativa (ORYSA); 1.25 g/ha): 0%; Post-emergence action against ZEAMX (crop plant compatibility) (Zea mays (ZEAMX)): 20%; Post-emergence action against TRZAS (crop plant compatibility) [8]: 20%
Cn1c(C(F)(F)F)cc(=O)n(-c2cc(Oc3cc(F)ccc3OCC(=O)OCC#N)c(Cl)cc2F)c1=O [I.23-176] | 100 | 100 | 100 | 100 | 100 | 100 | 80 | 90 | 100 | 100 | 100 | 100 | 100 | 80 | 100 | 100 | 100 | 100 | 90 | 100 | Post-emergence action against PHBPU in % ([6]; dosage 1.25 g/ha): 90%; Post-emergence action at 1.25 g/ha against AMARE in % [7]: 100%; Post-emergence action at 5 g/ha against AMARE in % [7]: 100%; Post-emergence action at 20 g/ha against AMARE in % [7]: 100%; Post-emergence action against ORYSA (crop plant compatibility) (Oryza sativa (ORYSA); 1.25 g/ha): 0%; Post-emergence action against ORYSA (crop plant compatibility) (Oryza sativa (ORYSA); 5 g/ha): 20%; Post-emergence action against ZEAMX (crop plant compatibility) (Zea mays (ZEAMX)): 20%; Post-emergence action against TRZAS (crop plant compatibility) [8]: 10%
